Measurements reported in patent US6146859A, “Facile synthesis of L-homophenylalanine by equilibrium shift enzymatic reaction using engineered tyrosine aminotransferase” (Academia Sinica, priority 1999, dated 2000).
Where “and” joins values, the source holds several entries; their conditions need not be identical. Identical values can stand only once.

What was measured:
[1] = test system: microbial aminotransferase; conditions: at more than 0.2M; cited from earlier work
[2] = target: T1, genetically engineered tyrosine aminotransferase (Escherichia coli, UniProt P04693); assay: Tyrosine aminotransferase-catalyzed amino transfer to 2-oxo-4-phenylbutyric acid with various amino acids as amino donors; type: biochemical, E. coli; parameters: initial rate: unit not given here; conditions: amino acid 0.20 mmol, 2-oxo-4-phenylbutyric acid 0.10 mmol, enzyme 1 unit, 5 mL Tris-HCl 20 mM pH 8.5, 37° C., 5 min; for initial rate: increase of homophenylalanine by HPLC
T1 construct: made in house; host or cells: E. coli
T1 sequence (P04693 whole entry, change not shown): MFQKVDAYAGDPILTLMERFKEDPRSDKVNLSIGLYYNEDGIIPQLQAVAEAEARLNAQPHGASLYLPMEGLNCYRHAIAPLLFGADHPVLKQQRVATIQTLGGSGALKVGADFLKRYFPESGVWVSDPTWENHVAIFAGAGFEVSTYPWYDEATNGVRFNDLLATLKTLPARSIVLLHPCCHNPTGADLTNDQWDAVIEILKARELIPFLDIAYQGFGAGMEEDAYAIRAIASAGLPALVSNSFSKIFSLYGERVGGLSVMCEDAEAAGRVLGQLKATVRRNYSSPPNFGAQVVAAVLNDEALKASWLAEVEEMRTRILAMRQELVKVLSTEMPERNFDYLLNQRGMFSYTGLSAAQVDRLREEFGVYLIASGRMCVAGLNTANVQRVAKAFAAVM
Excerpt: Production of tyrosine aminotransferase: Genetically engineered tyrosine aminotransferase is preferably produced by overexpressing the gene product in E. coli according to the method described by Kuramitsu et al. in Biochem, Biophys. Res. Commu., 1989, 133:134, the contents of which are herein incorporated by references in their entirety. One unit of enzyme activity was defined as the activity that produces 1 μmol of product per minute.
The enzymatic activities of the genetically engineered tyrosine aminotransferase as described above were tested using various amino acids as amino donors and the results are shown in Table I. Each enzyme-catalyzed reaction was carried out in a mixture (5 mL) of Tris-HCl buffer (20 mM, pH 8.5) containing the tested amino acid (0.20 mmol) and 2-oxo-4-phenylbutyric acid (0.10 mmol) and the enzyme (1 unit) at 37° C. for 5 min. The initial rate was measured by calculating the increase of homophenylalanine concentration in each reaction based on HPLC analysis.

[3] = target: T2, tyrosine aminotransferase (Escherichia coli, UniProt P04693); assay: Equilibrium constants of the tyrosine aminotransferase-catalyzed reaction with 2-oxo-4-phenylbutyric acid and various amino acids; type: biochemical, E. coli; conditions: 2-oxo-4-phenylbutyric acid and the amino acid as substrates
T2 construct: made in house; host or cells: E. coli
T2 sequence (P04693 whole entry): as the sequence (P04693 whole entry, change not shown) above
Experimental: (§1) The HPLC chromatography is preferably conducted under the following conditions: column, 5C18; flow rate, 1 ml/min; gradient elution from an initial solution of 10% of eluent B+90% of eluent A to a final solution of 100% of eluent B in 20 minutes, wherein eluent A contains 5% ACN in 0.1% TFA and eluent B contains 95% ACN in 0.1% TFA; detector UV 214 nm. Initially, only peaks representing the starting materials L-glutamic acid having a retention time of 2.70 min and compound 1 having a retention time of 7.49 min appear in the HPLC graph as shown in the lower panel of FIG. 3. After adding the tyrosine aminotransferase, the areas of peaks corresponding to compound 1 and glutamic acid are decreased gradually, whereas areas of peaks corresponding to compound 2 having a retention time of 5.24 min and α-ketoglutamic acid having a retention time of 3.49 min are increased, as shown in the upper panel of FIG. 3. When the area of the peak representing compound 1 is reduced to one-fifth of the initial peak area, white precipitates appear in the reaction solution, while the peak area of compound 2 becomes stable and stays constant until the peak areas of compound 1 and glutamic acid are reduced to about baseline.

[4] = type: physicochemical; conditions: pH 8.5
Experimental: Synthesis of L-homophenylalanine: The synthesis is conducted preferably in a reaction mixture (5 ml) containing Tris-HCl buffer (50 mM, pH 8.5), compound 1 (10 mmole, the final concentration of compound 1 is about 2 M), L-Glu (10 mM), pyridoxal 5-phosphate (20 mM) at 37° C. The reaction is initiated by adding the tyrosine aminotransferase (5 units) to the reaction solution and monitored by HPLC.
as §1, with “When the area of the peak representing compound 1 is reduced to one-fifth of the initial peak area, white precipitates appear in the reaction solution, while the peak area of compound 2 becomes stable and stays constant until the peak areas of compound 1 and glutamic acid are reduced to about baseline.” left out

solubility in the reaction solution [4] | Structure (SMILES) | inhibition of aminotransferase activity and conversion yield [1] | turnover rate [2] | initial rate [2] | Equilibrium Constant (Keq) [3]
 | O=C(O)C(=O)CCc1ccccc1 [2-oxo-4-phenylbutyric acid] | markedly inhibited |  |  | 
 | C[C@H](N)C(=O)O [L-Ala, alanine] |  | 0.042 mM/min.unit | 0.23 | 
 | N[C@@H](CC(=O)O)C(=O)O [L-Asp, aspartic acid] |  | 0.372 mM/min.unit | 2.04 | 0.187
 | N[C@@H](CCC(=O)O)C(=O)O [L-Glu, glutamic acid] |  | 0.539 mM/min.unit and 0.54 mM/min.unit | 2.96 | 0.345
 | NCC(=O)O [L-Gly, glycine] |  | 0.027 mM/min.unit | 0.15 | 
 | N[C@@H](Cc1c[nH]cn1)C(=O)O [L-His, histidine] |  | 0.089 mM/min.unit | 0.49 | 
 | CC[C@H](C)[C@H](N)C(=O)O [L-Ile, isoleucine] |  | 0.005 mM/min.unit | 0.03 | 
 | CC(C)C[C@H](N)C(=O)O [L-Leu, leucine] |  | 0.106 mM/min.unit | 0.58 | 
 | NCCCC[C@H](N)C(=O)O [L-Lys, lysine] |  | 0.046 mM/min.unit | 0.25 | 
 | CSCC[C@H](N)C(=O)O [L-Met, methionine] |  | 0.268 mM/min.unit | 1.47 | 
 | N[C@@H](Cc1ccccc1)C(=O)O [L-Phe, phenylalanine] |  | 0.605 mM/min.unit and 0.61 mM/min.unit | 3.32 | 0.466
 | N[C@@H](CO)C(=O)O [L-Ser, serine] |  | 0.002 mM/min.unit | 0.01 | 
 | C[C@@H](O)[C@H](N)C(=O)O [L-Thr, threonine] |  | 0.009 mM/min.unit | 0.05 | 
 | N[C@@H](Cc1ccc(O)cc1)C(=O)O [L-Tyr, tyrosine] |  | 0.619 mM/min.unit and 0.62 mM/min.unit | 3.43 | 0.727
 | CC(C)[C@H](N)C(=O)O [L-Val, valine] |  | 0.058 mM/min.unit | 0.32 | 
practically insoluble | N[C@@H](CCc1ccccc1)C(=O)O [compound 2, L-homophenylalanine] |  |  |  | 
